Reference: the NIST ThermoML archive (doi:10.1021/je049913p)
Numbers after ± are expanded uncertainties.

What was measured:
[1] = Crystal; Adiabatic calorimetry
[2] = Molar enthalpy of transition or fusion; conditions: Crystal; Adiabatic calorimetry

Triple point temperature [1]: 544.56 ± 0.005 K
Molar enthalpy of transition or fusion [2]: 2.655 ± 0.00406 kcal/mol
SMILES: [Bi] [bismuth]
